Publication PMC7788351 (The Journal of Pharmacology and Experimental Therapeutics, 2021)
Counter-ions that a name gives are not always drawn.

Assays:
[1] = target: 5-HT2B (Homo sapiens, UniProt P41595); conditions: ref Schindler et al., 2019; cited from earlier work
[2] = test system: humans; conditions: ref Chait et al., 1985; cited from earlier work
[3] = target: T1, α2A (Homo sapiens, UniProt P08913); conditions: ref Schindler et al., 2019; cited from earlier work
T1 sequence (P08913 1-465): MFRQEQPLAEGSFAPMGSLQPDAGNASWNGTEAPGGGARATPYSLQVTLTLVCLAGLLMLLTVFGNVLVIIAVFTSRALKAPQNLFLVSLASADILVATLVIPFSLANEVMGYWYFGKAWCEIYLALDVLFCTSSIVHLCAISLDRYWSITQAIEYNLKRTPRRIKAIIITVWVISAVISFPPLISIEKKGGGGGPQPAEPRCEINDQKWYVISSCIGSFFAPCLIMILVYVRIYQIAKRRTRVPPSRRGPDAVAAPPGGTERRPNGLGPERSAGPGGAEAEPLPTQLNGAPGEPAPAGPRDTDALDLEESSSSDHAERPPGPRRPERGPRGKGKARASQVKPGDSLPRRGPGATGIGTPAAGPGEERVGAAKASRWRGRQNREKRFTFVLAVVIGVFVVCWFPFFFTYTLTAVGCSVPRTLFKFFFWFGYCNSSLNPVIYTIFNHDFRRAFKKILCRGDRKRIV

[4] = target: T2, 5-HT1A (Homo sapiens, UniProt P08908); conditions: ref Schindler et al., 2019; cited from earlier work
T2 sequence (P08908 1-422): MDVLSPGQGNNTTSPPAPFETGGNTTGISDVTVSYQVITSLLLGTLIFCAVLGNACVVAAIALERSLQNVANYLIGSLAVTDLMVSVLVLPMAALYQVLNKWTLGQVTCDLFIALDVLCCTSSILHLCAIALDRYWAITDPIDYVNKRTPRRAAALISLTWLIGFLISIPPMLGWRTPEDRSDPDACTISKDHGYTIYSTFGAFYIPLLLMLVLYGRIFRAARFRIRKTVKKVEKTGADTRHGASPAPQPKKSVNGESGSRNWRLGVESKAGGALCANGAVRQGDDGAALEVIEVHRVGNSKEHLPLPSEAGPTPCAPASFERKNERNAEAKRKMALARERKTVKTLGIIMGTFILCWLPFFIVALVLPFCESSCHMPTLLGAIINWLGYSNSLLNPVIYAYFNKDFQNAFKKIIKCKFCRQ

[5] = target: T3, α2C (Homo sapiens, UniProt P18825); conditions: ref Schindler et al., 2019; cited from earlier work
T3 sequence (P18825 1-462): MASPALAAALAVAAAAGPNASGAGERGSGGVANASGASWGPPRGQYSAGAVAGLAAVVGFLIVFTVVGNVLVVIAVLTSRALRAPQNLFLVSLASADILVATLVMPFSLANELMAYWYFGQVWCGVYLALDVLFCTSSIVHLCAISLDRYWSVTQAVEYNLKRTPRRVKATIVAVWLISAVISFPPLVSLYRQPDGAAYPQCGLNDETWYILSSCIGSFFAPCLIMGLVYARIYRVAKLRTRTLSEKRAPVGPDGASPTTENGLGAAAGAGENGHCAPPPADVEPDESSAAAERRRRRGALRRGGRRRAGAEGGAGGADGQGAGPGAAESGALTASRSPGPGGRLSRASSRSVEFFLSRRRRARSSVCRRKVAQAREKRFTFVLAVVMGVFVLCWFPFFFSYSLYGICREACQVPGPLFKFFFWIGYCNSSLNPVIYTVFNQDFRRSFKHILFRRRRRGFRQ

[6] = test system: humans; conditions: ref Brauer and de Wit, 1996, Kelly et al., 2006, Harvanko et al., 2016; cited from earlier work
[7] = test system: male Sprague-Dawley rats; assay: In vivo biotelemetry; conditions: s.c., amphetamine 0.1–3 mg/kg, PEA analogs 1–10 mg/kg
[8] = test system: rats; conditions: ref Schindler et al., 2019, cited from earlier work

Chain of 5-HT2B (P41595 whole entry): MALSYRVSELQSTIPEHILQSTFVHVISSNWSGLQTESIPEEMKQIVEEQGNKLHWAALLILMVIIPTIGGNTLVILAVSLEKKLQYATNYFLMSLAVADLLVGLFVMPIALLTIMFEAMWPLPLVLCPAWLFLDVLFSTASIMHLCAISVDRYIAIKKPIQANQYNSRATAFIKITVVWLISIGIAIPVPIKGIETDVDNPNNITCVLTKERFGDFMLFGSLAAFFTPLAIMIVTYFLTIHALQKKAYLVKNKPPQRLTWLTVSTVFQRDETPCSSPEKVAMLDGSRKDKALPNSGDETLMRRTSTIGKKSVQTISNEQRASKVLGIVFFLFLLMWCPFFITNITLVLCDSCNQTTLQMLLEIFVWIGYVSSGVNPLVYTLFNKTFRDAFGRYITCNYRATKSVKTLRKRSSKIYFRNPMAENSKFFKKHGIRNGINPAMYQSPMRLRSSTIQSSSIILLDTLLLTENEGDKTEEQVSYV

| Structure (SMILES) | Ki [1] [nM] | threshold oral dose that can be discriminated [2] [mg] | Ki [3] [nM] | Ki [4] [nM] | Ki [5] [nM] | lowest oral doses that increase BP and HR [6] [mg] | effect on core body temperature [7] | effect on HR or activity ([8]; at the doses tested) | reduction of potency to increase BP compared with amphetamine [8] |
| --- | --- | --- | --- | --- | --- | --- | --- | --- | --- |
| C[C@H](N)Cc1ccccc1 [Amphetamine, (S)-amphetamine sulfate] | 971 | 5 | 420 | 2630 | 171 | 7.5 to 10 | did not significantly affect body temperature | – | – |
| CC(CN)c1ccccc1 (stereo not drawn) [BMPEA, β-methylphenethylamine] | – | – | – | – | – | – | – | did not increase HR or activity | about 30 fold |
